According to patent US20150258052A1, “METHODS OF USING FEXARAMINE AND AGENTS THAT INCREASE SYMPATHETIC NERVOUS SYSTEM ACTIVITY TO PROMOTE BROWNING OF WHITE ADIPOSE TISSUE” (Salk Institute for Biological Studies, priority 2014, published 2015):

Tests used:
[1] = system: brown adipose tissue (BAT); assay: Energy expenditure and brown adipose tissue (BAT) analysis in Fex-treated DIO mice; type: in vivo
Procedure: Mice were fed HFD for 14 weeks and then administered vehicle or fexaramine (100 mg/kg) daily by oral administration for 5 weeks with HFD. Data represent the mean±STD. Statistical analysis was performed with the Student's t test (*p<0.05, **p<0.01).
FIG. 6M is a bar chart showing the effect of fexaramine on respiratory exchange ratio (RER). Mice were fed on HFD for 14 weeks, and then administered daily oral injections of vehicle or fexaramine (100 mg/kg) for 5 weeks with HFD.
FIG. 6N is a bar graph showing the effect of fexaramine administration on serum lactate concentrations. Mice were fed on HFD for 14 weeks, and then administered daily oral injections of vehicle or fexaramine (100 mg/kg) for 5 weeks with HFD. […] Data represent the mean±STD. Statistical analysis was performed with the Student's t test (*p<0.05, **p<0.01).
(FIG. 6E). […] Gene expression analysis confirmed the induction of ERRγ, PGC-1α, and PGC-1β, as well as a number of their target genes involved in thermogenesis, mitochondrial biogenesis, and fatty acid oxidation in BAT (FIG. 6G).

DIO mice = assay: Hyperinsulinemic-euglycemic clamp and liver analysis in Fex-treated DIO mice; type: in vivo
Procedure: Mice were fed HFD for 14 weeks and then subjected to daily PO injection of vehicle or fexaramine (100 mg/kg) for 5 weeks with HFD. In the bar graphs, open bars are vehicle, solid bars are fexaramine, and data represent the mean±STD. Statistical analysis was performed with the Student's t test (*p<0.05, **p<0.01).
FIGS. 15I-15K are a line graph and two bar graphs showing the effect of fexaramine treatment on body weight, insulin-stimulated GDR, and fasting insulin levels. Mice were fed HFD for 14 weeks, and then administered daily oral injections of vehicle or fexaramine (100 mg/kg) for 3 weeks with HFD. The mice treated with fexaramine were initially heavier (by 2-3 grams). Three weeks after treatment, a clamp study was performed on the mice. Data represent the mean±STD. Statistical analysis was performed with the Student's t test (*p<0.05, **p<0.01).
Liver insulin resistance has been linked to obesity-induced hepatic steatosis (Cohen et al., Science 332:1519-1523, 2011). […] Furthermore, decreased serum alanine aminotransferase (ALT) levels were measured in Fex-treated mice, indicating reduced HFD-induced liver damage (FIG. 15H). Thus, in DIO mice Fex promotes hepatic insulin sensitization, reduced steatosis, improved metabolic markers, decreased ALT and enhanced BAT activity.

[2] = DIO mice, 100 mg/kg PO 5 weeks, listed as fexaramine, 100 mg/kg
[3] = DIO mice, chronic Fex treatment

For `COC(=O)/C=C/c1cccc(N(Cc2ccc(-c3ccc(N(C)C)cc3)cc2)C(=O)C2CCCCC2)c1` [Fex, fexaramine], the “OXPHOS gene expression changes in inguinal, gonadal and brown adipose depots (RNA-sequencing)” value ([1]; DIO mice, 100 mg/kg PO 5 weeks) was “selectively enhance OXPHOS activity only in BAT”, the “PKA activity in BAT” value ([1]; DIO mice, 100 mg/kg PO 5 weeks) was “increased PKA activity” and the “accumulation of lipid vesicles in BAT (histology)” value ([1]; DIO mice, 100 mg/kg PO 5 weeks) was “markedly reduced”. For the same molecule, the “ambulatory counts (activity)” value ([1]; DIO mice, 100 mg/kg PO 5 weeks) was “more active than control mice”, the “carbon dioxide production (VCO2)” value ([1]; DIO mice, 100 mg/kg PO 5 weeks) was “exhaled more carbon dioxide” and the “gene expression of ERRγ, PGC-1α, PGC-1β and target genes in BAT” value ([1]; DIO mice, 100 mg/kg PO 5 weeks) was “induction”. For the same molecule, the “oxygen consumption (VO2)” value ([1]; DIO mice, 100 mg/kg PO 5 weeks) was “consistently higher oxygen consumption”, the “phosphorylation level of p38 in BAT” value ([1]; DIO mice, 100 mg/kg PO 5 weeks) was “increased the phosphorylation level of p38” and the serum lactate levels ([1]; DIO mice, 100 mg/kg PO 5 weeks, 100 mg/kg) was “significantly reduced”. The “respiratory exchange ratio (RER)” value [1, 2] was “No changes were observed”, the serum lactate levels [1, 2] was “significantly decreased” and the food intake ([1]; DIO mice, first week of treatment) was “not attributable to difference in food intake”. The “DIO2 (downstream target of TGR5) in BAT” value ([1]; oral Fex) was “induce DIO2”, the “lipid droplets in liver (histology, hepatic steatosis)” value (DIO mice; DIO mice, 100 mg/kg PO 5 weeks) was “reduction in lipid droplets” and the “serum alanine aminotransferase (ALT) levels” value (DIO mice; DIO mice, 100 mg/kg PO 5 weeks) was “decreased”. The “hepatic expression of gluconeogenic and lipogenic genes” value (DIO mice; [3]) was “reduced hepatic expression”, the hepatic triglycerides (DIO mice; [3]) was “marked decrease” and the “insulin-mediated suppression of HGP” value (DIO mice; hyperinsulinemic-euglycemic clamp, versus control DIO mice) was “marked increase”. For the same molecule, the “basal HGP, GDR, IS-GDR, FFA suppression and fasting insulin levels” value (DIO mice; weight-matched cohorts, hyperinsulinemic-euglycemic clamp) was “No differences”.
